Experimental data as given in patent publication US20170071944A1, “MODULATORS OF TOLL-LIKE RECEPTORS FOR THE TREATMENT OF HIV” (Gilead Sciences, Inc., priority 2015, published 2017).

Test system: PBMC cultures from HIV-1 infected subjects on cART
Test: Induced cytokines and chemokines in PBMC cultures from HIV-1 infected subjects on cART (multiplexed Luminex)
Type: cell-based, human
Conditions: day 2, geometric mean, 4 subjects
Protocol: To further characterize the immune modulatory effect of TLR8 agonists in cells from HIV-infected subjects, the production of secreted cytokines and chemokines was measured in PBMCs from 4 HIV-infected subjects on suppressive cART (anonymized participant IDs 180-183). PBMCs were purified, as described in Example 121, and immediately added to tissue culture plates pre-equilibrated at 37° C. with media containing DMSO (vehicle control) or with the TLR8 modulating compound Example 15 at concentrations ranging from 1.0 nM to 10.0 μM. On day 2 after treatment, cell-free culture supernatants were collected and frozen at −80 C for subsequent analysis. Frozen supernatants were thawed at room temperature, and the indicated cytokines and chemokines were quantified with a custom multiplexed xMAP Luminex® assay following the manufacturer's instructions (Thermo Fisher Scientific Inc., Grand Island, N.Y., custom-designed kit).
Data are expressed as geometric mean cytokine values (pg/ml) obtained from 4 subjects' PBMCs. Geometric mean fold-activation from three independent incubation samples for each condition. Fold (fold-activation) is calculated as a ratio of the concentration of cytokine detected in cell culture supernatants from agonist treated samples relative to DMSO treated samples

CCCC[C@H](CO)Nc1nc(N)nc2cccnc12 [Example 15]
I-TAC Fold vs DMSO (Ex 15 1000 nM): 2 fold | IFN-α (Ex 15 1000 nM): 6 pg/mL | IFN-α Fold vs DMSO (Ex 15 1000 nM): 3 fold | IFN-γ (Ex 15 1000 nM): 5693 pg/mL | IFN-γ Fold vs DMSO (Ex 15 1000 nM): 228 fold | IL-6 pg/ml (Ex 15 1000 nM): 22600 pg/mL | IL-8 pg/ml (Ex 15 1000 nM): 1565 pg/mL | IL-10 pg/ml (Ex 15 1000 nM): 3719 pg/mL | IL-18 pg/ml (Ex 15 1000 nM): 191 pg/mL | IL-23 pg/ml (Ex 15 1000 nM): 465 pg/mL | IL-1RA (Ex 15 1000 nM): 164731 pg/mL | IL-1RA Fold vs DMSO (Ex 15 1000 nM): 46 fold | IL-1β (Ex 15 1000 nM): 4735 pg/mL | IL-1β Fold vs DMSO (Ex 15 1000 nM): 1578 fold | IL-6 Fold vs DMSO (Ex 15 1000 nM): 290 fold | IL-8 Fold vs DMSO (Ex 15 1000 nM): 5 fold | IL-10 Fold vs DMSO (Ex 15 1000 nM): 219 fold | IL-12p70 pg/ml (Ex 15 1000 nM): 524 pg/mL | IL-12p70 Fold vs DMSO (Ex 15 1000 nM): 175 fold | IL-18 Fold vs DMSO (Ex 15 1000 nM): 11 fold | IL-23 Fold vs DMSO (Ex 15 1000 nM): 8 fold | IP-10 pg/ml (Ex 15 1000 nM): 741 pg/mL | IP-10 Fold vs DMSO (Ex 15 1000 nM): 3 fold | MCP-1 pg/ml (Ex 15 1000 nM): 1464 pg/mL | MCP-1 Fold vs DMSO (Ex 15 1000 nM): 22 fold | MIP-1α (Ex 15 1000 nM): 18689 pg/mL | MIP-1α Fold vs DMSO (Ex 15 1000 nM): 374 fold | MIP-1β (Ex 15 1000 nM): 415739 pg/mL | MIP-1β Fold vs DMSO (Ex 15 1000 nM): 340 fold | MIP-3α (Ex 15 1000 nM): 1085 pg/mL | MIP-3α Fold vs DMSO (Ex 15 1000 nM): 42 fold | MMP-1 pg/ml (Ex 15 1000 nM): 317 pg/mL | MMP-1 Fold vs DMSO (Ex 15 1000 nM): 3 fold | TNF-α (Ex 15 1000 nM): 34880 pg/mL | TNF-α Fold vs DMSO (Ex 15 1000 nM): 1661 fold | GRO-α (Ex 15 3000 nM): 418 pg/mL | GRO-α Fold vs DMSO (Ex 15 3000 nM): 18 fold | Granzyme B (Ex 15 3000 nM): 857 pg/mL | Granzyme B Fold vs DMSO (Ex 15 3000 nM): 4 fold | I-TAC (Ex 15 3000 nM): 98 pg/mL | I-TAC Fold vs DMSO (Ex 15 3000 nM): 2 fold | IFN-α (Ex 15 3000 nM): 6 pg/mL | IFN-α Fold vs DMSO (Ex 15 3000 nM): 3 fold | IFN-γ (Ex 15 3000 nM): 3586 pg/mL | IFN-γ Fold vs DMSO (Ex 15 3000 nM): 143 fold | IL-6 pg/ml (Ex 15 3000 nM): 15198 pg/mL | IL-8 pg/ml (Ex 15 3000 nM): 1139 pg/mL | IL-10 pg/ml (Ex 15 3000 nM): 4747 pg/mL | IL-18 pg/ml (Ex 15 3000 nM): 308 pg/mL | IL-23 pg/ml (Ex 15 3000 nM): 1163 pg/mL | IL-1RA (Ex 15 3000 nM): 88340 pg/mL | IL-1RA Fold vs DMSO (Ex 15 3000 nM): 25 fold | IL-1β (Ex 15 3000 nM): 5302 pg/mL | IL-1β Fold vs DMSO (Ex 15 3000 nM): 1767 fold | IL-6 Fold vs DMSO (Ex 15 3000 nM): 195 fold | IL-8 Fold vs DMSO (Ex 15 3000 nM): 4 fold | IL-10 Fold vs DMSO (Ex 15 3000 nM): 279 fold | IL-12p70 pg/ml (Ex 15 3000 nM): 381 pg/mL | IL-12p70 Fold vs DMSO (Ex 15 3000 nM): 127 fold
